Data: US12539292B2, “BRM targeting compounds and associated methods of use” (Arvinas Operations, Inc., priority 2018, dated 2026)
Read-outs that look alike come from different tables or passages of the source.

Target: T1, BRM (Homo sapiens, UniProt P51531)
T1 construct: In-Cell Western Screen of BRM Degradation in SW1573 Cells; endogenous in cells; host or cells: SW1573
Assay: In-cell Western screen of BRM degradation in SW1573 cells (Dmax and DC50)
Type: cell-based
In short: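 BRM levels were read by LI-COR in-cell Western after two-channel (800/680 nm) immunostaining of fixed, Triton-permeabilised SW1573 cells.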

[1] = BRM degradation, SW1573 cells, read-out: DC50
[2] = BRM degradation, SW1573 cells, when tested at the top concentration of between 0.3 and 10 μM, read-out: Dmax (%) (% degraded)
[3] = BRM degradation, SW1573 cells, read-out: Dmax (% degraded)
[4] = BRM degradation, SW1573 cells, tested at the top concentration of between 0.3 and 10 μM, read-out: Dmax (%) (% degraded)
[5] = BRM degradation, read-out: BRM DC50

T1 sequence (P51531 whole entry): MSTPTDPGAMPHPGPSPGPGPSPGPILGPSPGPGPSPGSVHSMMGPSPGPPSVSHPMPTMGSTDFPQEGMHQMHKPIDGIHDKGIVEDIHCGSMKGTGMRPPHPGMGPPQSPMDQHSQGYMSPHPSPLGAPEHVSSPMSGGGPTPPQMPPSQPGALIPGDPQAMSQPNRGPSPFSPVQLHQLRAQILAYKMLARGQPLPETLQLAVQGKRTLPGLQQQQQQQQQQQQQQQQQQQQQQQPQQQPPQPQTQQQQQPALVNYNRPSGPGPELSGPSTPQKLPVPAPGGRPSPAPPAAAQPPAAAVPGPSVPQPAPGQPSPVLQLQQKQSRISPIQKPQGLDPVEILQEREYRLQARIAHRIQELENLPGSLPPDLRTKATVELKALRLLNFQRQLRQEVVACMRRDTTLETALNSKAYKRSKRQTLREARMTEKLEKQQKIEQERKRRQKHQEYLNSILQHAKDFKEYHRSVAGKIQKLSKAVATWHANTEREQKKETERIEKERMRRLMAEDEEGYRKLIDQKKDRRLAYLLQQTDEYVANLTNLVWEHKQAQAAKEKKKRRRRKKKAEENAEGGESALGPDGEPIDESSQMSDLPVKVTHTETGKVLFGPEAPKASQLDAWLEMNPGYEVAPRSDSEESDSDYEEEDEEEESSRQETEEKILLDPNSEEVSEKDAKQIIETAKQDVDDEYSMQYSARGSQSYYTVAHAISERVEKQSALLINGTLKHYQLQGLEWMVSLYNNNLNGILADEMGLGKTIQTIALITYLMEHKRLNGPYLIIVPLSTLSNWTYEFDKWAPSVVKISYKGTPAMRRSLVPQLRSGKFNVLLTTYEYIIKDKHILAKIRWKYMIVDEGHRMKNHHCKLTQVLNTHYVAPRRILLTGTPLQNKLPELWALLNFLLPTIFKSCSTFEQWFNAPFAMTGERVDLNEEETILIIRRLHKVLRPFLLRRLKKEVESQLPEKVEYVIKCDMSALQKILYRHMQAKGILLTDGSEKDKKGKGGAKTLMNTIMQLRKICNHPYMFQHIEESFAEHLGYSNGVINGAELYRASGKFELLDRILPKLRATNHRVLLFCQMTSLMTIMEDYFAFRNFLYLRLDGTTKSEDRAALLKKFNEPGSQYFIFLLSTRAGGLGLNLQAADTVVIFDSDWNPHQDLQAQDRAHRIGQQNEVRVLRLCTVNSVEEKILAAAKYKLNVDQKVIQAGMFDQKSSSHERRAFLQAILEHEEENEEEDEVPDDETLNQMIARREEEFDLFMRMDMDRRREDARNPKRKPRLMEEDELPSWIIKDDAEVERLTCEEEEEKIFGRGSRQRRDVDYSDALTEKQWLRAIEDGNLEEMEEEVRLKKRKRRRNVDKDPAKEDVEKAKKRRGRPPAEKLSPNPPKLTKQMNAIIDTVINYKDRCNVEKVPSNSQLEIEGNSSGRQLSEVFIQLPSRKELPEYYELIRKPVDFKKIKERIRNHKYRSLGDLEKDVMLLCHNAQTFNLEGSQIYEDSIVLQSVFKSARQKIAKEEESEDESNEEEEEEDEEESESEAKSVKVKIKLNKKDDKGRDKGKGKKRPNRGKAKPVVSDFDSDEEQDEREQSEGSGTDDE

| SMILES | DC50 [1] [nM] | Dmax [3] [%] | further results |
| --- | --- | --- | --- |
| Cc1ncsc1-c1ccc([C@H](CO)NC(=O)[C@@H]2C[C@@H](O)CN2C(=O)[C@@H](c2cc(OCCN3CCN(CCOc4cc(N5C6CCC5CN(c5cc(-c7ccccc7O)nnc5N)C6)ccn4)CC3)no2)C(C)C)cc1 [compound 100, (2S,4R)-1-((2R)-2-(3-(2-(4-(2-((4-(3-(3-amino-6-(2-hydroxyphenyl)pyridazin-4-yl)-3,8-diazabicyclo[3.2.1]octan-8-yl)pyridin-2-yl)oxy)ethyl)piperazin-1-yl)ethoxy)isoxazol-5-yl)-3-methylbutanoyl)-4-hydroxy-N-((R)-2-hydroxy-1-(4-(4-methylthiazol-5-yl)phenyl)ethyl)pyrrolidine-2-carboxamide] | < 2.5 | – | Dmax [2]: > 75% |
| CCOC[C@H](NC(=O)[C@@H]1C[C@@H](O)CN1C(=O)[C@@H](c1cc(OCCN2CCN(CCOc3cc(N4C5CCC4CN(c4cc(-c6ccccc6O)nnc4N)C5)ccn3)CC2)no1)C(C)C)c1ccc(-c2scnc2C)cc1 [compound 128, (2S,4R)-1-((2R)-2-(3-(2-(4-(2-((4-(3-(3-amino-6-(2-hydroxyphenyl)pyridazin-4-yl)-3,8-diazabicyclo[3.2.1]octan-8-yl)pyridin-2-yl)oxy)ethyl)piperazin-1-yl)ethoxy)isoxazol-5-yl)-3-methylbutanoyl)-N-((R)-2-ethoxy-1-(4-(4-methylthiazol-5-yl)phenyl)ethyl)-4-hydroxypyrrolidine-2-carboxamide] | < 2.5 | – | Dmax [2]: > 75% |
| Cc1ncsc1-c1ccc(CNC(=O)[C@@H]2C[C@@H](O)CN2C(=O)[C@@H](c2cc(OCCN3CCN(CCOCCn4cc(-c5cc(-c6ccccc6O)nnc5N)cn4)CC3)no2)C(C)C)cc1 [compound 124, (2S,4R)-1-((R)-2-(3-(2-(4-(2-(2-(4-(3-amino-6-(2-hydroxyphenyl)pyridazin-4-yl)-1H-pyrazol-1-yl)ethoxy)ethyl)piperazin-1-yl)ethoxy)isoxazol-5-yl)-3-methylbutanoyl)-4-hydroxy-N-(4-(4-methylthiazol-5-yl)benzyl)pyrrolidine-2-carboxamide] | > 30 | – | Dmax [2]: > 75% |
| Cc1ncsc1-c1ccc([C@H](C)NC(=O)[C@@H]2C[C@@H](O)CN2C(=O)C(c2cc(N3CCC(C(C)(C)N4CCC(O[C@H]5C[C@H](Oc6cc(N7C8CCC7CN(c7cc(-c9ccccc9O)nnc7N)C8)ccn6)C5)CC4)CC3)no2)C(C)C)cc1 (stereo partly drawn) [compound 692, (2S,4R)-1-(2-(3-(4-(2-(4-((1r,3r)-3-((4-(3-(3-amino-6-(2-hydroxyphenyl)pyridazin-4-yl)-3,8-diazabicyclo[3.2.1]octan-8-yl)pyridin-2-yl)oxy)cyclobutoxy)piperidin-1-yl)propan-2-yl)piperidin-1-yl)isoxazol-5-yl)-3-methylbutanoyl)-4-hydroxy-N-((S)-1-(4-(4-methylthiazol-5-yl)phenyl)ethyl)pyrrolidine-2-carboxamide] | < 2.5 | > 75 | – |
| CC(C)[C@H](C(=O)N1C[C@H](O)C[C@H]1C(=O)N[C@@H](C)c1ccc(-n2ccnc2CO)cc1)c1cc(OCC#Cc2ccc(O[C@H]3C[C@H](Oc4cc(N5C6CCC5CN(c5cc(-c7ccccc7O)nnc5N)C6)ccn4)C3)cn2)no1 [compound 284, (2S,4R)-1-((2S)-2-(3-((3-(5-((1r,3S)-3-((4-(3-(3-amino-6-(2-hydroxyphenyl)pyridazin-4-yl)-3,8-diazabicyclo[3.2.1]octan-8-yl)pyridin-2-yl)oxy)cyclobutoxy)pyridin-2-yl)prop-2-yn-1-yl)oxy)isoxazol-5-yl)-3-methylbutanoyl)-4-hydroxy-N-((S)-1-(4-(2-(hydroxymethyl)-1H-imidazol-1-yl)phenyl)ethyl)pyrrolidine-2-carboxamide] | 10 to 30 | – | Dmax [4]: > 75% |
| CC[C@H](NC(=O)[C@@H]1C[C@@H](O)CN1C(=O)[C@@H](c1cc(N2CCC(CN3CCC(O[C@H]4C[C@H](Oc5cc(N6C7CCC6CN(c6cc(-c8ccccc8O)nnc6N)C7)ccn5)C4)CC3)CC2)no1)C(C)C)c1ccc(-c2scnc2C)cc1 [compound 654, (2S,4R)-1-((2R)-2-(3-(4-((4-((1r,3r)-3-((4-(3-(3-amino-6-(2-hydroxyphenyl)pyridazin-4-yl)-3,8-diazabicyclo[3.2.1]octan-8-yl)pyridin-2-yl)oxy)cyclobutoxy)piperidin-1-yl)methyl)piperidin-1-yl)isoxazol-5-yl)-3-methylbutanoyl)-4-hydroxy-N-((S)-1-(4-(4-methylthiazol-5-yl)phenyl)propyl)pyrrolidine-2-carboxamide] | < 2.5 | > 75 | – |
| Cc1ncsc1-c1ccc([C@H](C)NC(=O)[C@@H]2C[C@@H](O)CN2C(=O)[C@@H](c2cc(N3CCN(C(C)(C)C4CCN(C[C@H]5C[C@H](Oc6cc(N7C8CCC7CN(c7cc(-c9ccccc9O)nnc7N)C8)ccn6)C5)CC4)CC3)no2)C(C)C)cc1 [compound 715, (2S,4R)-1-((2R)-2-(3-(4-(2-(1-(((1r,3r)-3-((4-(3-(3-amino-6-(2-hydroxyphenyl)pyridazin-4-yl)-3,8-diazabicyclo[3.2.1]octan-8-yl)pyridin-2-yl)oxy)cyclobutyl)methyl)piperidin-4-yl)propan-2-yl)piperazin-1-yl)isoxazol-5-yl)-3-methylbutanoyl)-4-hydroxy-N-((S)-1-(4-(4-methylthiazol-5-yl)phenyl)ethyl)pyrrolidine-2-carboxamide] | < 2.5 | > 75 | – |
| Cc1ncsc1-c1ccc([C@H](C)NC(=O)[C@@H]2C[C@@H](O)CN2C(=O)[C@@H](c2cc(OCCN3CCN(CCOc4cc(N5C6CCC5CN(c5cc(-c7ccccc7O)nnc5N)C6)ccn4)C[C@@H]3C)no2)C(C)C)cn1 [compound 509, (2S,4R)-1-((2R)-2-(3-(2-((2S)-4-(2-((4-(3-(3-amino-6-(2-hydroxyphenyl)pyridazin-4-yl)-3,8-diazabicyclo[3.2.1]octan-8-yl)pyridin-2-yl)oxy)ethyl)-2-methylpiperazin-1-yl)ethoxy)isoxazol-5-yl)-3-methylbutanoyl)-4-hydroxy-N-((S)-1-(6-(4-methylthiazol-5-yl)pyridin-3-yl)ethyl)pyrrolidine-2-carboxamide] | – | – | DC50 [5]: < 2.5 nM; Dmax (SW1573, % degraded, when tested at the top concentration of between 0.3 and 10 μM, read-out: BRM Dmax (%)): > 75% |
| Cc1ncsc1-c1ccc([C@H](C)NC(=O)[C@@H]2C[C@@H](O)CN2C(=O)[C@H](c2cc(OCCN3CCC(O[C@H]4C[C@H](Oc5cc(N6C7CCC6CN(c6cc(-c8ccccc8)nnc6N)C7)ccn5)C4)CC3)no2)C(C)C)cc1 [compound 536, (2S,4R)-1-((2S)-2-(3-(2-(4-((1r,3S)-3-((4-(3-(3-amino-6-phenylpyridazin-4-yl)-3,8-diazabicyclo[3.2.1]octan-8-yl)pyridin-2-yl)oxy)cyclobutoxy)piperidin-1-yl)ethoxy)isoxazol-5-yl)-3-methylbutanoyl)-4-hydroxy-N-((S)-1-(4-(4-methylthiazol-5-yl)phenyl)ethyl)pyrrolidine-2-carboxamide] | – | – | DC50 (BRM degradation, SW1573 cells, Table 2D): > 30 nM |
| Cc1ncsc1-c1ccc([C@H](C)NC(=O)[C@@H]2C[C@@H](O)CN2C(=O)[C@@H](c2cc(N3CCC(CN4CCC(O[C@H]5C[C@H](CN6CCC(C(C)n7cc(-c8cc(-c9ccccc9O)nnc8N)cn7)CC6)C5)CC4)CC3)no2)C(C)C)cc1 (stereo partly drawn) [compound 642, (2S,4R)-1-((2R)-2-(3-(4-((4-((1r,3r)-3-((4-(1-(4-(3-amino-6-(2-hydroxyphenyl)pyridazin-4-yl)-1H-pyrazol-1-yl)ethyl)piperidin-1-yl)methyl)cyclobutoxy)piperidin-1-yl)methyl)piperidin-1-yl)isoxazol-5-yl)-3-methylbutanoyl)-4-hydroxy-N-((S)-1-(4-(4-methylthiazol-5-yl)phenyl)ethyl)pyrrolidine-2-carboxamide] | < 2.5 | > 75 | – |
| Cc1ncsc1-c1ccc([C@H](C)NC(=O)[C@@H]2C[C@@H](O)CN2C(=O)[C@H](c2cc(N3CCN(CCN4CCC(O[C@H]5C[C@H](Oc6cc(N7C8CCC7CN(c7cc(-c9ccccc9O)nnc7N)C8)ccn6)C5)CC4)CC3)no2)C(C)C)cc1 [compound 195, (2S,4R)-1-((2S)-2-(3-(4-(2-(4-((1r,3r)-3-((4-(3-(3-amino-6-(2-hydroxyphenyl)pyridazin-4-yl)-3,8-diazabicyclo[3.2.1]octan-8-yl)pyridin-2-yl)oxy)cyclobutoxy)piperidin-1-yl)ethyl)piperazin-1-yl)isoxazol-5-yl)-3-methylbutanoyl)-4-hydroxy-N-((S)-1-(4-(4-methylthiazol-5-yl)phenyl)ethyl)pyrrolidine-2-carboxamide] | > 30 | – | Dmax [4]: > 75% |
| Cc1ncsc1-c1ncc([C@H](C)NC(=O)[C@@H]2C[C@@H](O)CN2C(=O)C(c2cc(OCCN3CCC(O[C@H]4C[C@H](Oc5cc(N6C7CCC6CN(c6cc(-c8ccccc8O)nnc6N)C7)ccn5)C4)CC3)no2)C(C)C)cc1F (stereo partly drawn) [compound 500, (2S,4R)-1-(2-(3-(2-(4-((1r,3r)-3-((4-(3-(3-amino-6-(2-hydroxyphenyl)pyridazin-4-yl)-3,8-diazabicyclo[3.2.1]octan-8-yl)pyridin-2-yl)oxy)cyclobutoxy)piperidin-1-yl)ethoxy)isoxazol-5-yl)-3-methylbutanoyl)-N-((S)-1-(5-fluoro-6-(4-methylthiazol-5-yl)pyridin-3-yl)ethyl)-4-hydroxypyrrolidine-2-carboxamide] | – | – | DC50 [5]: > 30 nM |
